Experimental data as given in patent publication US12062444B2, “Methods and compositions related to triple-negative breast cancer” (THE UNIVERSITY OF CHICAGO, priority 2017, dated 2024).
Entries after “also recorded” stand apart in the source; their conditions may differ.

Legend:
[1] = test system: GR-regulated gene expression in MDA-MB-231 cells; assay: Gene expression microarray and analysis; format: cell-based, human
Description: MDA-MB-231 cells were grown to 80% confluence in 15-cm dishes in DMEM with 10% FBS. […] Following compound exposure, cells were washed in PBS, and lysed in RNA lysis buffer (Qiagen) overnight at -80° C. RNA extraction, with accompanying DNase treatment, was performed using the RNeasy kit (Qiagen) following the manufacturer's protocol. […] The University of Chicago Genomics Core facility carried out the reverse transcription on the samples, followed by microarray using the Affymetrix Human U133 Plus 2.0 platform. […] A principal components analysis (PCA) was performed using the prcomp function in R (Q-mode PCA using singular value decomposition). […] Dex-regulated genes were overlapped with a list of n=5,170 differentially-expressed tumor-derived genes (in the same direction) from GR-high versus GR-low BCs (52). Ingenuity Pathway Analysis (Qiagen) of the n=462 patient-relevant and antagonist-inhibited genes was performed to obtain Activation Z-scores of the most significant Diseases and Biofunctions (cell functions).

[2] = biological target: T1, GR LBD (Homo sapiens, UniProt P04150); assay: Ligand titration assay via fluorescence polarimetry (displacement of F-Dex); format: binding
T1 construct: The wild-type GR-LBD (amino acid residues 522-777) was cloned into a pFASTBAC plasmid; 6X-His (TEV-cleavable) (cleaved yes); made in house; host or cells: SF9 insect cells (baculovirus, pFASTBAC)
T1 sequence (P04150 522-777): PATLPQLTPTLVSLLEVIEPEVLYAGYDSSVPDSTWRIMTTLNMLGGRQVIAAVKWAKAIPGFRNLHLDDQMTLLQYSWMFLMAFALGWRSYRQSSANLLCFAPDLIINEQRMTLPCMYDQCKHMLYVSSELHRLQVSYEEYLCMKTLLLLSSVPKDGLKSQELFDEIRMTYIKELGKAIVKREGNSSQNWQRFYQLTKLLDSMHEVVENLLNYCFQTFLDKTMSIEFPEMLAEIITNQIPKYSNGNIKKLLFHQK
Description: SF9 insect cells were transfected with recombinant bacmid and virus (collected after 6 days) was amplified prior to protein expression. […] GR-LBD was purified first using Ni-affinity chromatography followed by overnight dialysis with TEV protease to remove the His tag. Extensive dialysis into 20 mM TRIS pH 8.0, 500 mM NaCl, 5% glycerol, 0.1% CHAPS, 0.25 mM TCEP was performed to obtain non-ligand-bound GR LBD. […] The purified proteins were concentrated to 5 mg/ml, flash frozen in 50 ul aliquots in N2(l), and stored at −80C.
GR LBD was diluted in assay buffer (20 mM TRIS pH 7.5, 50 mM NaCl, 0.25 mM TCEP) to a concentration of 50 nM. […] Triplicate FP measurements were scaled to maximal FP and averaged for each ligand concentration.

[3] = mifepristone 300 mg/day before weekly nab-paclitaxel, BC patients; cited from earlier work
[4] = test system: tumor cell survival; details: in vitro and in vivo; cited from earlier work
[5] = test system: GR chromatin association in MDA-MB-231 cells; assay: GR ChIP-sequencing and analysis; format: cell-based, human; details: co-treatment with Dex
Description: MDA-MB-231 cells were grown to 80% confluence in 15-cm dishes in DMEM with 10% FBS, followed by 48h in DMEM supplemented with 2.5% charcoal-stripped FBS. […] Cells were cross-linked with 1% formaldehyde, quenched with glycine (final concentration of […]), and harvested. After cell lysis with ChIP lysis buffer (Magna ChIP A Chromatin Immunoprecipitation Kit, EMD Millipore), cells were sonicated to achieve the majority of DNA fragments between 200-400 bp. Input samples were preserved at -80° C. […] Following manufacturer's protocol, chromatin was eluted from GR ChIP and input samples. Library build and sequencing was performed at the University of Oregon Genomics Core facility using the NextSeq 500 sequencer. Quality control on sequences and adapter sequencing trimming was performed using Kapa Biosystems Illumina Library Quantification Kit. ChIP-seq analysis was carried out using the Galaxy platform (usegalaxy.org (111)). […] GR peaks for each treatment were normalized to its own input control sample. […] Selected GR peak locations in hg19 and GR peak maps were also individually analyzed using Integrative Genomics Viewer, IGV (Broad Institute (116)).

[6] = test system: apoptotic cells; details: RU486 in conjunction with dexamethasone, compared to paclitaxel alone; cited from earlier work

CC#C[C@]1(O)CC[C@H]2[C@@H]3CCC4=CC(=O)CCC4=C3[C@@H](c3ccc(N(C)C)cc3)C[C@@]21C [Mif, mifepristone]
Genes for which both GR modulators antagonized GR induction or repression by at least 25% ([1]; 100 nM with 100 nM Dex): 3,066 | Antagonized GR-regulated genes shared with the other antagonist ([1]; C297 versus Mif, 100 nM): 68% | Pathway activation Z-score (Ingenuity Pathway Analysis) relative to Dex ([1]; n=462 genes, cell survival, invasion, EMT pathways, FIG. 13): relative dampening of Z-score magnitude | Displacement of fluorescently-labeled Dex (F-Dex) from the GR LBD [2]: low nM affinities | Fit of FP dose response curve (half-maximal FP signal) [2]: able to fit data | Safety and tolerability of the combination with nab-paclitaxel [3]: safe and tolerable; also recorded: potential for increased cytopenias | Paclitaxel cytotoxicity under GC activation [4]: increase paclitaxel cytotoxicity both in vitro and in vivo | Relative GR promoter enrichment (+/−3kb) [5]: decrease in relative GR promoter enrichment | Number of apoptotic cells induced by paclitaxel [6]: did not increase the number of apoptotic cells
